Results: the NIST ThermoML archive (doi:10.1016/j.jct.2016.10.005)

Experiment: excess molar enthalpy (molar enthalpy of mixing); xn = mol fraction of the nth substance listed
Conditions: 100 kPa, Liquid, Flow calorimetry

C1CCCCC1 [cyclohexane] + CCCO
excess molar enthalpy [kJ/mol]
Conditions | 298.15 K | 313.15 K
x1 = 0.0503 | 0.091 | 0.107
x1 = 0.1005 | 0.173 | 0.208
x1 = 0.1499 | 0.247 | 0.3
x1 = 0.2005 | 0.316 | 0.388
x1 = 0.2498 | – | 0.467
x1 = 0.2499 | 0.378 | –
x1 = 0.3004 | – | 0.541
x1 = 0.3005 | 0.435 | –
x1 = 0.3502 | – | 0.607
x1 = 0.3503 | 0.486 | –
x1 = 0.4001 | – | 0.666
x1 = 0.4003 | 0.531 | –
x1 = 0.45 | – | 0.717
x1 = 0.4501 | 0.569 | –
x1 = 0.4997 | – | 0.758
x1 = 0.4998 | 0.599 | –
x1 = 0.5502 | – | 0.79
x1 = 0.5504 | 0.623 | –
x1 = 0.6006 | 0.637 | 0.81
x1 = 0.6503 | 0.642 | 0.819
x1 = 0.6994 | – | 0.813
x1 = 0.6995 | 0.636 | –
x1 = 0.7503 | – | 0.791
x1 = 0.8005 | 0.582 | 0.75
x1 = 0.8497 | 0.53 | 0.689
x1 = 0.9005 | 0.456 | 0.598
x1 = 0.9502 | 0.346 | 0.459

CC1CCCCC1 [methylcyclohexane] + CCCO
excess molar enthalpy [kJ/mol]
Conditions | 298.15 K | 313.15 K
x1 = 0.0498 | 0.075 | 0.1
x1 = 0.1005 | 0.144 | 0.195
x1 = 0.1504 | 0.207 | –
x1 = 0.1505 | – | 0.283
x1 = 0.2 | 0.265 | 0.365
x1 = 0.2504 | 0.321 | 0.443
x1 = 0.3005 | 0.372 | 0.515
x1 = 0.3501 | 0.419 | –
x1 = 0.3502 | – | 0.581
x1 = 0.3998 | 0.462 | 0.64
x1 = 0.4503 | 0.501 | 0.694
x1 = 0.5004 | 0.533 | –
x1 = 0.5005 | – | 0.74
x1 = 0.55 | 0.559 | 0.781
x1 = 0.5998 | 0.577 | –
x1 = 0.5999 | – | 0.798
x1 = 0.6497 | 0.587 | 0.81
x1 = 0.6995 | 0.587 | 0.808
x1 = 0.7505 | 0.574 | 0.79
x1 = 0.7996 | 0.549 | 0.756
x1 = 0.8495 | 0.508 | 0.702
x1 = 0.9002 | 0.446 | 0.619
x1 = 0.9499 | – | 0.486
